Laboratory results as given in patent US20230293599A1, “BACTERIAL COMPOSITIONS WITH ANTI-INFLAMMATORY ACTIVITY” (Universiteit Gent, priority 2020, published 2023).
Like-named read-outs stand apart in the source and are kept apart here. Residues, ends and D or L forms follow the SMILES beside them.

How the values were obtained:
P. aeruginosa = assay: Biolog Phenotype Microarray PM1-2 growth on carbon sources; format: cell-based, Pseudomonas aeruginosa
Experimental: (§1) Using Phenotype Microarray (PM) panels (Biolog), the influence of 190 carbon sources on the growth of the potential probiotic species R. mucilaginosa, R. dentocariosa, R. gilardii, G. haemolysans, and common respiratory pathogens P. aeruginosa, and S. aureus was determined. PM1 and PM2 panels (Biolog) were inoculated according to the manufacturer's instructions. Growth curves were generated for 35 hours by measuring the absorbance at 590 nm using an EnVision (Perkin Elmer) plate reader.

S. aureus = format: cell-based, Staphylococcus aureus
Experimental: as §1

R. gilardii = assay: Biolog Phenotype Microarray PM1-2 growth on carbon sources; format: cell-based, Roseomonas gilardii
Experimental: as §1

R. dentocariosa = assay: as above; format: cell-based, Rothia dentocariosa
Experimental: as §1

R. mucilaginosa = assay: as above; format: cell-based, Rothia mucilaginosa; details: 35 hours, absorbance 590 nm, n = 1; cells without values AUC < 50
Experimental: as §1

[1] = 35 hours, absorbance 590 nm, n = 1, cells without values AUC < 50

| SMILES | AUC of growth curve, P. aeruginosa (P. aeruginosa; [1]) | AUC of growth curve, S. aureus (S. aureus) | also measured |
| --- | --- | --- | --- |
| O=C(O)CC(O)C(=O)O (racemic) [D,L-Malic Acid] | 852.7 | 696.0 | AUC of growth curve, R. gilardii (R. gilardii; [1]): 169.8 |
| OC[C@H]1O[C@@H](Oc2ccc(O)cc2)[C@H](O)[C@@H](O)[C@@H]1O [Arbutin] |  | 282.2 | AUC of growth curve, R. dentocariosa (R. dentocariosa; [1]): 55.2 |
| O=C(O)CC(Br)C(=O)O (stereo not shown) [Bromo Succinic Acid] | 102.6 | 430.7 | AUC of growth curve, R. dentocariosa (R. dentocariosa; [1]): 808.4; AUC of growth curve, R. gilardii (R. gilardii; [1]): 67.3 |
| O=C(O)CC(O)(CC(=O)O)C(=O)O [Citric Acid] | 846.5 | 169.0 | AUC of growth curve, R. gilardii (R. gilardii; [1]): 156.2 |
| C[C@@H](O)[C@H](O)[C@H](O)[C@@H](O)C=O [D-Fucose] | 91.3 | 138.3 | AUC of growth curve, R. dentocariosa (R. dentocariosa; [1]): 119.9; AUC of growth curve, R. gilardii (R. gilardii; [1]): 71.4 |
| O=C[C@H](O)[C@@H](O)[C@@H](O)[C@H](O)C(=O)O [D-Galacturonic Acid] | 598.2 | 165.1 | AUC of growth curve, R. dentocariosa (R. dentocariosa; [1]): 57.0 |
| O=C(O)[C@H](O)[C@@H](O)[C@H](O)[C@H](O)CO [D-Gluconic Acid] |  | 321.0 | AUC of growth curve, P. aeruginosa (P. aeruginosa): 617.8 |
| O=C[C@H](O)[C@@H](O)[C@H](O)[C@H](O)COP(=O)(O)O [D-Glucose-6-Phosphate] | 399.6 | 168.0 |  |
| O=C[C@H](O)[C@@H](O)[C@H](O)[C@H](O)C(=O)O [D-Glucuronic Acid] | 543.2 | 292.7 |  |
| COC(=O)[C@@H](C)O [D-Lactic Acid Methyl Ester] | 1081.7 | 517.2 |  |
| OC[C@@H](O)[C@@H](O)[C@H](O)[C@H](O)CO [D-Mannitol] | 420.0 | 884.6 |  |
| OC[C@H]1O[C@@](CO)(O[C@H]2O[C@H](CO)[C@@H](O)[C@H](O)[C@H]2O)[C@@H](O[C@H]2O[C@H](CO)[C@@H](O)[C@H](O)[C@H]2O)[C@@H]1O [D-Melezitose] |  | 969.2 | AUC of growth curve, R. dentocariosa (R. dentocariosa; [1]): 57.2 |
| OC[C@H]1O[C@H](OCC2O[C@@H](O)[C@H](O)[C@@H](O)[C@@H]2O)[C@H](O)[C@@H](O)[C@H]1O (stereo partly drawn) [D-Melibiose] |  | 220.2 | AUC of growth curve, R. dentocariosa (R. dentocariosa; [1]): 249.8; AUC of growth curve, R. gilardii (R. gilardii; [1]): 86.9 |
| O=C(O)[C@@H](O)[C@@H](O)[C@H](O)[C@@H](O)C(=O)O [D-Saccharic Acid] | 108.8 | 57.3 |  |
| OC[C@@H](O)[C@@H](O)[C@H](O)[C@@H](O)CO [D-Sorbitol] | 129.8 | 412.2 |  |
| O=C(CO)[C@@H](O)[C@@H](O)[C@H](O)CO [D-Tagatose] |  | 633.2 | AUC of growth curve, P. aeruginosa (P. aeruginosa): 574.0; AUC of growth curve, R. dentocariosa (R. dentocariosa): 117.7; AUC of growth curve, R. gilardii (R. gilardii): 75.2 |
| O=C(O)/C=C/C(=O)O [Fumaric Acid] | 1085.5 | 687.9 | AUC of growth curve, R. dentocariosa (R. dentocariosa; [1]): 202.9 |
| NCC(=O)O [Glycine] | 101.6 | 743.1 |  |
| NCC(=O)N[C@@H](CC(=O)O)C(=O)O [Glycyl-L-Aspartic Acid] (H-Gly-Asp-OH) |  | 840.3 | AUC of growth curve, P. aeruginosa (P. aeruginosa): 538.0 |
| NCC(=O)N1CCC[C@H]1C(=O)O [Glycyl-L-Proline] (H-Gly-Pro-OH) |  | 292.4 | AUC of growth curve, P. aeruginosa (P. aeruginosa): 387.4; AUC of growth curve, R. dentocariosa (R. dentocariosa): 72.5 |
| OC[C@H]1O[C@@H](n2cnc3c(O)ncnc32)[C@H](O)[C@@H]1O [Inosine] | 141.0 | 1075.0 |  |
| C[C@H](N)C(=O)O [L-Alanine] | 775.3 | 564.0 |  |
| N=C(N)NCCC[C@H](N)C(=O)O [L-Arginine] |  | 816.4 | AUC of growth curve, P. aeruginosa (P. aeruginosa): 285.4 |

| SMILES | AUC of growth curve, P. aeruginosa (P. aeruginosa; [1]) | AUC of growth curve, S. aureus (S. aureus) | also measured |
| --- | --- | --- | --- |
| NC(=O)C[C@H](N)C(=O)O [L-Asparagine] | 1032.0 | 684.0 |  |
| N[C@@H](CC(=O)O)C(=O)O [L-Aspartic Acid] | 730.7 | 464.1 |  |
| O=C1O[C@H]([C@@H](O)CO)[C@@H](O)[C@@H]1O [L-Galactonic Acid γ-Lactone] |  | 176.4 | AUC of growth curve, P. aeruginosa (P. aeruginosa): 549.8; AUC of growth curve, R. gilardii (R. gilardii): 212.2 |
| N[C@@H](CCC(=O)O)C(=O)O [L-Glutamic Acid] | 788.3 |  | AUC of growth curve, S. aureus (S. aureus; [1]): 644.7 |
| NC(=O)CC[C@H](N)C(=O)O [L-Glutamine] | 987.8 | 697.1 |  |
| N[C@@H](Cc1c[nH]cn1)C(=O)O [L-Histidine] | 773.2 | 467.3 |  |
| N[C@@H](CCO)C(=O)O [L-Homoserine] | 82.5 | 194.1 |  |
| CC[C@H](C)[C@H](N)C(=O)O [L-Isoleucine] | 86.2 | 113.8 |  |
| CC(C)C[C@H](N)C(=O)O [L-Leucine] | 125.5 | 231.5 |  |
| CSCC[C@H](N)C(=O)O [L-Methionine] | 52.6 | 254.7 |  |
| O=C1CC[C@@H](C(=O)O)N1 [L-Pyroglutamic Acid] | 1438.7 | 427.9 |  |
| O=C(CO)[C@@H](O)[C@H](O)[C@@H](O)CO [L-Sorbose] |  | 458.7 | AUC of growth curve, P. aeruginosa (P. aeruginosa): 94.3; AUC of growth curve, R. dentocariosa (R. dentocariosa): 52.1 |
| O=C(O)CC(=O)O [Malonic Acid] | 234.7 | 470.9 |  |
| O=C(O)[C@@H](O)[C@H](O)[C@H](O)[C@@H](O)C(=O)O [Mucic Acid] |  | 162.5 | AUC of growth curve, R. mucilaginosa (R. mucilaginosa): 53.4 |
| CC(=O)N[C@@H](CCC(=O)O)C(=O)O [N-Acetyl-L-Glutamic Acid] | 272.5 | 184.1 |  |
| O=C(O)C(=O)C(C(=O)O)C(O)C(=O)O (stereo not shown) [Oxalomalic Acid] |  | 691.0 | growth of P. aeruginosa on the carbon source (in words) (P. aeruginosa): did not support growth; AUC of growth curve, R. dentocariosa (R. dentocariosa): 169.4; growth of R. dentocariosa on the carbon source (in words) (R. dentocariosa): enabled growth; AUC of growth curve, R. gilardii (R. gilardii): 219.2; growth of R. gilardii on the carbon source (in words) (R. gilardii): enabled growth |
| CCC(=O)O [Propionic Acid] | 152.1 | 235.6 | AUC of growth curve, R. gilardii (R. gilardii; [1]): 58.6 |
| NCCCCN [Putrescine] | 656.8 | 274.2 |  |
| CCC(C)N (stereo not shown) [Sec-Butylamine] |  |  | AUC of growth curve, R. mucilaginosa (R. mucilaginosa): 67.6 |
| NC(=O)CCC(=O)O [Succinamic Acid] | 53.6 | 490.3 |  |
| O=C(O)CCC(=O)O [Succinic Acid] | 348.4 | 626.1 | AUC of growth curve, R. dentocariosa (R. dentocariosa; [1]): 241.8; AUC of growth curve, R. gilardii (R. gilardii; [1]): 125.7 |
| O=C(O)CC(CC(=O)O)C(=O)O [Tricarballylic Acid] | 510.7 | 177.0 |  |
| COC1OC(CO)C(O)C(O)C1O [α-Methyl-D-Galactoside] |  | 229.9 | AUC of growth curve, R. gilardii (R. gilardii; [1]): 73.3 |
